From EPA's CvTdb concentration-time database

Assays:
[1] = tested on: Rat; test: concentration in brain after dosing; conditions: 2 h; dosed: 2-Methyltetrahydrofuran; 40 mg/kg; iv; Female; Harlan Sprague Dawley
[2] = tested on: Rat; test: concentration in brain after dosing; conditions: 1.5 h; dosed: 2-Methyltetrahydrofuran; 40 mg/kg; iv; Male; Harlan Sprague Dawley
[3] = tested on: Rat; test: concentration in plasma after dosing; conditions: 6 h; dosed: 2-Methyltetrahydrofuran; 40 mg/kg; iv; Male; Harlan Sprague Dawley
[4] = tested on: Rat; test: concentration in brain after dosing; conditions: 3 h; dosed: Fluorotelomer alcohol 8+2; 80 mg/kg; oral; Female; Harlan Sprague Dawley
[5] = tested on: Rat; test: concentration in brain after dosing; conditions: 1 h; dosed: Fluorotelomer alcohol 8+2; 24 mg/kg; oral; Male; Harlan Sprague Dawley
[6] = tested on: Rat; test: concentration in plasma after dosing; conditions: dosed: Fluorotelomer alcohol 8+2, 12 mg/kg, oral, Male, Harlan Sprague Dawley
[7] = tested on: Rat; test: concentration in kidney after dosing; conditions: 3 h; dosed: Fluorotelomer alcohol 8+2; 24 mg/kg; oral; Male; Harlan Sprague Dawley
[8] = tested on: Rat; test: concentration in kidney after dosing; conditions: 1 h; dosed: Fluorotelomer alcohol 8+2; 80 mg/kg; oral; Female; Harlan Sprague Dawley
[9] = tested on: Rat; test: concentration in kidney after dosing; conditions: 6 h; dosed: Fluorotelomer alcohol 8+2; 80 mg/kg; oral; Female; Harlan Sprague Dawley
[10] = tested on: Rat; test: concentration in liver after dosing; conditions: 6 h; dosed: Perfluorohexanoic Acid; 80 mg/kg; oral; Male; Harlan Sprague Dawley
[11] = tested on: Rat; test: concentration in brain after dosing; conditions: 1 h; dosed: Perfluorohexanoic Acid; 80 mg/kg; oral; Female; Harlan Sprague Dawley
[12] = tested on: Rat; test: concentration in plasma after dosing; conditions: dosed: Perfluorohexanoic Acid, 40 mg/kg, iv, Male, F344
[13] = tested on: Rat; test: concentration in plasma after dosing; conditions: dosed: Perfluorohexanoic Acid, 80 mg/kg, oral, Male, Harlan Sprague Dawley
[14] = tested on: Rat; test: concentration in plasma after dosing; conditions: 4 h; dosed: Gemfibrozil; 4.29 mg/kg; oral; Male; Sprague-Dawley
[15] = tested on: Rat; test: concentration in plasma after dosing; conditions: 5 min; dosed: Gemfibrozil; 100 mg/kg; oral; Male; Sprague-Dawley
[16] = tested on: Rat; test: concentration in plasma after dosing; conditions: 2 h; dosed: Gemfibrozil; 100 mg/kg; oral; Male; Sprague-Dawley
[17] = tested on: Rat; test: concentration in plasma after dosing; conditions: 18 h; dosed: Gemfibrozil; 4.29 mg/kg; oral; Male; Sprague-Dawley
[18] = tested on: Rat; test: concentration in plasma after dosing; conditions: 0.5 h; dosed: Gemfibrozil; 4.29 mg/kg; oral; Male; Sprague-Dawley
[19] = tested on: Rat; test: concentration in plasma after dosing; conditions: 5 min; dosed: Gemfibrozil; 50 mg/kg; oral; Male; Sprague-Dawley
[20] = tested on: Rat; test: concentration in plasma after dosing; conditions: 24 h; dosed: Gemfibrozil; 4.29 mg/kg; oral; Male; Sprague-Dawley
[21] = tested on: Rat; test: concentration in plasma after dosing; conditions: 6 h; dosed: Gemfibrozil; 50 mg/kg; oral; Male; Sprague-Dawley
[22] = tested on: rat; test: concentration in blood after dosing; conditions: dosed: trichloroethylene
[23] = tested on: Rat; test: concentration in liver after dosing; conditions: 864 h; dosed: Perfluorooctane Sulfonate; 2 mg/kg; oral; Female; Harlan Sprague Dawley
[24] = tested on: Rat; test: concentration in brain after dosing; conditions: 24 h; dosed: Perfluorooctane Sulfonate; 2 mg/kg; oral; Female; Harlan Sprague Dawley
[25] = tested on: Rat; test: concentration in brain after dosing; conditions: 1848 h; dosed: Perfluorooctane Sulfonate; 20 mg/kg; oral; Male; Harlan Sprague Dawley
[26] = tested on: Rat; test: concentration in brain after dosing; conditions: 6 h; dosed: Perfluorooctane Sulfonate; 20 mg/kg; oral; Male; Harlan Sprague Dawley
[27] = tested on: Rat; test: concentration in liver after dosing; conditions: 864 h; dosed: Perfluorooctane Sulfonate; 2 mg/kg; oral; Female; Harlan Sprague Dawley; remark: listed apart in the source
[28] = tested on: Rat; test: concentration in liver after dosing; conditions: 3360 h; dosed: Perfluorooctane Sulfonate; 2 mg/kg; oral; Female; Harlan Sprague Dawley
[29] = tested on: Rat; test: concentration in plasma after dosing; conditions: 24 h; dosed: Perfluorooctane Sulfonate; 2 mg/kg; oral; Female; Harlan Sprague Dawley
[30] = tested on: Rat; test: concentration in kidney after dosing; conditions: 24 h; dosed: Perfluorooctane Sulfonate; 20 mg/kg; oral; Male; Harlan Sprague Dawley
[31] = tested on: Rat; test: concentration in kidney after dosing; conditions: 1848 h; dosed: Perfluorooctane Sulfonate; 2 mg/kg; oral; Female; Harlan Sprague Dawley

CC1CCCO1 (centres undefined) [2-Methyltetrahydrofuran]
Conditions | concentration in brain [ng/mL] | concentration in plasma [ng/mL]
[1] | 9940 | –
[2] | 6260 | –
[3] | – | 29.7

O=C(O)CCC(F)(F)C(F)(F)C(F)(F)C(F)(F)C(F)(F)C(F)(F)C(F)(F)F [Fluorotelomer acid 7+3]
Conditions | concentration in brain [ng/g] | concentration in kidney [ng/g]
[4] | 1310 | –
[5] | 160 | –
[7] | – | 1450
[8] | – | 584
[9] | – | 3960

[6]
Conditions | concentration in plasma [ng/mL]
48 h | 245
192 h | 25.5

O=C(O)C(F)(F)C(F)(F)C(F)(F)C(F)(F)C(F)(F)F [Perfluorohexanoic Acid]
Conditions | concentration in brain [ng/g] | concentration in liver [ng/g]
[10] | – | 15400
[11] | 1270 | –

concentration in plasma [ng/mL]
Conditions | 3 h | 5 min | 9 h
[12] | 3900 | 23100 | –
[13] | – | 29100 | 4040

Cc1ccc(C)c(OCCCC(C)(C)C(=O)O)c1 [Gemfibrozil]
Conditions | concentration in plasma [ng/mL]
[14] | 238
[15] | 1690
[16] | 5120
[17] | 127
[18] | 570
[19] | 7230
[20] | 159
[21] | 7260

ClC=C(Cl)Cl [trichloroethylene]
[22], inhalation
Conditions | concentration in blood [ng/mL]
0.1294 h, 600.4 ppm, duration: 4 hr, female, Fischer-344 | 21900
0.1299 h, 50 ppm, duration: 2 hr, male, Sprague Dawley | 443
0.1617 h, 50 ppm, duration: 2 hr, male, Sprague Dawley | 402
0.2483 h, 50 ppm, duration: 2 hr, male, Sprague Dawley | 454
0.3289 h, 50 ppm, duration: 2 hr, male, Sprague Dawley | 492
0.4153 h, 50 ppm, duration: 2 hr, male, Sprague Dawley | 352
0.4974 h, 50 ppm, duration: 2 hr, male, Sprague Dawley | 493
0.5081 h, 600.4 ppm, duration: 4 hr, female, Fischer-344 | 15900
0.7511 h, 50 ppm, duration: 2 hr, male, Sprague Dawley | 433
1.002 h, 50 ppm, duration: 2 hr, male, Sprague Dawley | 555
1.016 h, 600.4 ppm, duration: 4 hr, female, Fischer-344 | 9420
1.252 h, 50 ppm, duration: 2 hr, male, Sprague Dawley | 512
1.531 h, 600.4 ppm, duration: 4 hr, female, Fischer-344 | 5750
2.018 h, 600.4 ppm, duration: 4 hr, female, Fischer-344 | 4750
110 s, 50 ppm, duration: 2 hr, male, Sprague Dawley | 206
219 s, 50 ppm, duration: 2 hr, male, Sprague Dawley | 267
350 s, 50 ppm, duration: 2 hr, male, Sprague Dawley | 337

[22], oral
Conditions | concentration in blood [ng/mL]
0.1447 h, 18 mg/kg, male, Wistar | 10200
0.1716 h, 7.6 mg/kg, female, F344 | 1400
0.1747 h, 18 mg/kg, male, Wistar | 7730
0.2208 h, 18 mg/kg, male, Wistar | 5020
0.2739 h, 18 mg/kg, male, Wistar | 3760
0.3228 h, 18 mg/kg, male, Wistar | 2790
0.3309 h, 7.6 mg/kg, female, F344 | 494
0.3794 h, 18 mg/kg, male, Wistar | 2110
0.4319 h, 18 mg/kg, male, Wistar | 1710
0.5005 h, 7.6 mg/kg, female, F344 | 296
0.5204 h, 18 mg/kg, male, Wistar | 1350
0.7693 h, 18 mg/kg, male, Wistar | 957
1.014 h, 18 mg/kg, male, Wistar | 768
1.512 h, 18 mg/kg, male, Wistar | 503
2.017 h, 18 mg/kg, male, Wistar | 333
2.518 h, 18 mg/kg, male, Wistar | 321
3.02 h, 18 mg/kg, male, Wistar | 214
3.529 h, 18 mg/kg, male, Wistar | 59.6
4.027 h, 18 mg/kg, male, Wistar | 47.7
125 s, 7.6 mg/kg, female, F344 | 1770
143 s, 18 mg/kg, male, Wistar | 11100
266 s, 18 mg/kg, male, Wistar | 13600
296 s, 7.6 mg/kg, female, F344 | 2100
355 s, 18 mg/kg, male, Wistar | 13000

O=S(=O)([O-])C(F)(F)C(F)(F)C(F)(F)C(F)(F)C(F)(F)C(F)(F)C(F)(F)C(F)(F)F [Perfluorooctane Sulfonate]
Conditions | concentration in brain [ng/g] | concentration in kidney [ng/g] | concentration in liver [ng/g] | concentration in plasma [ng/mL]
[23] | – | – | 9930 | –
[24] | 757 | – | – | –
[25] | 660 | – | – | –
[26] | 4810 | – | – | –
[27] | – | – | 17500 | –
[28] | – | – | 4340 | –
[29] | – | – | – | 5040
[30] | – | 82400 | – | –
[31] | – | 860 | – | –
